Source: PMC12133000 (PLOS One, 2025)
Values joined by “and” are separate entries in the source; they are usually repeats but may differ in a detail not shown here. Equal values may be shown once.

Assay: Pharmacokinetics of rivaroxaban in rats after avitinib or gefitinib pretreatment
Format: in vivo, Sprague–Dawley (SD) rats
Design: AUC(0-∞): concentration or dose not given beside the values
Protocol: Eighteen male Sprague–Dawley (SD) rats weighing 300 ± 20 g were provided by the Experimental Animal Center of Wenzhou Medical University (Wenzhou, China) and kept under controlled conditions at a temperature of 23 ± 2 °C, relative humidity of 50 ± 10%, and 12 h light–dark cycle. Eighteen male SD rats were randomly assigned to three groups: avitinib, gefitinib, and control, with six rats per group. Prior to the experiment, the rats were not administered any other medications and fasted for 12 h. The experimental procedures and protocols adhered to Animal Ethics standards and were approved by the Animal Care and Use Committee of Wenzhou Medical University (approval no. wydw2019–650). All rats were anesthetized with sodium pentobarbital (40mg/kg, i.p) to relieve pain. The rats were killed through cervical dislocation.
Prior to the experiment in vivo, the six rats in the avitinib group were administered 30 mg/kg avitinib and 0.5% sodium carboxymethyl cellulose (CMC-Na) solution by gavage daily for 7 d. […] The supernatant was collected and stored at −80 °C. After thawing, 50 μL of plasma was extracted; 100 μL of acetonitrile solution containing midazolam (200 ng/mL) was then added to induce protein precipitation. After vortexing for 30 s and centrifuging at 13,000 rpm for 5 min, the […].
All assays were performed in triplicate, and the results are expressed as mean ± standard deviation. DAS software v. […] SPSS v. 25.0 (IBM, NY, USA) was used for data processing. Student’s t-tests were used to detect differences between groups. Differences with p < 0.05 were considered statistically significant.

[1] = avitinib group, single rats No1-No6, listed as 利伐沙班
[2] = gefitinib group, single rats No1-No6, listed as 利伐沙班

## O=C(NC[C@H]1CN(c2ccc(N3CCOCC3=O)cc2)C(=O)O1)c1ccc(Cl)s1 [rivaroxaban, Rivaroxaban]
Avitinib group, Mean
  AUMC(0-t): 34198 h*h*ug/L
  AUMC(0-∞): 40098.5 h*h*ug/L
  MRT(0-∞): 4.258 h
  R_AUC(t/∞): 96.35%
  VRT(0-t): 6.828 h^2
  VRT(0-∞): 12.881 h^2
  Vz/F: 3.719 L/kg
[1]
  AUC(0-t): 6581.83 ng·h/mL and 7888.62 ng·h/mL and 9151.91 ng·h/mL and 7417.4 ng·h/mL and 6560.88 ng·h/mL and 16372.3 ng·h/mL
  AUC(0-∞): 6854.37 ng·h/mL and 9138.32 ng·h/mL and 9162.9 ng·h/mL and 7462.9 ng·h/mL and 6602.34 ng·h/mL and 16863.5 ng·h/mL
  AUMC(0-t): 25199.7 h*h*ug/L and 32914.3 h*h*ug/L and 26176.1 h*h*ug/L and 34761 h*h*ug/L and 21050.6 h*h*ug/L and 65086.6 h*h*ug/L
  AUMC(0-∞): 29578.1 h*h*ug/L and 55191.1 h*h*ug/L and 26325.9 h*h*ug/L and 35414.7 h*h*ug/L and 21638.6 h*h*ug/L and 72442.7 h*h*ug/L
  CLz/F: 24.32 mL/min/kg and 18.23 mL/min/kg and 18.18 mL/min/kg and 22.3 mL/min/kg and 25.25 mL/min/kg and 9.88 mL/min/kg
  Cmax: 1423.2 ng/mL and 1593.7 ng/mL and 2386.3 ng/mL and 1162.7 ng/mL and 1561.2 ng/mL and 2761.8 ng/mL
  MRT(0-t): 4.172 h and 2.86 h and 4.686 h and 3.208 h and 3.975 h
  MRT(0-∞): 4.315 h and 6.04 h and 4.745 h and 3.277 h and 4.296 h
  R_AUC(t/∞): 96% and 86.3% and 99.9% and 99.4% (2×) and 97.1%
  VRT(0-t): 8.179 h^2 and 9.654 h^2 and 3.358 h^2 and 8.878 h^2 and 4.734 h^2 and 6.165 h^2
  VRT(0-∞): 14.228 h^2 and 34.982 h^2 and 3.496 h^2 and 9.426 h^2 and 5.486 h^2 and 9.666 h^2
  Vz/F: 5.931 L/kg and 6.375 L/kg and 1.763 L/kg and 3.171 L/kg and 3.308 L/kg and 1.765 L/kg
  t1/2z: 2.817 h and 4.037 h and 1.12 h and 1.64 h and 1.514 h and 2.062 h
  λz: 0.246 h⁻¹ and 0.172 h⁻¹ and 0.619 h⁻¹ and 0.423 h⁻¹ and 0.458 h⁻¹ and 0.336 h⁻¹
Gefitinib group, Mean
  AUMC(0-t): 283625 h*h*ug/L
  AUMC(0-∞): 684002 h*h*ug/L
  R_AUC(t/∞): 79.633%
  VRT(0-t): 8.14 h^2
  VRT(0-∞): 63.366 h^2
[2]
  AUC(0-t): 48396.5 ng·h/mL and 60392.6 ng·h/mL and 53896.5 ng·h/mL and 64214.9 ng·h/mL and 58569.4 ng·h/mL
  AUC(0-∞): 54327.6 ng·h/mL and 62633.7 ng·h/mL and 64818.2 ng·h/mL and 71935.8 ng·h/mL and 93798.8 ng·h/mL
  AUMC(0-t): 349046 h*h*ug/L and 247888 h*h*ug/L and 261964 h*h*ug/L and 270195 h*h*ug/L and 282576 h*h*ug/L and 290080 h*h*ug/L
  AUMC(0-∞): 1493251 h*h*ug/L and 344803 h*h*ug/L and 295419 h*h*ug/L and 469845 h*h*ug/L and 411554 h*h*ug/L and 1089140 h*h*ug/L
  Cmax: 6430.2 ng/mL and 11259.7 ng/mL and 7015.4 ng/mL and 10641.7 ng/mL and 7734.1 ng/mL
  MRT(0-t): 5.122 h and 4.338 h and 5.013 h and 4.4 h and 4.953 h
  MRT(0-∞): 13.743 h and 6.347 h and 4.717 h and 7.249 h and 5.721 h and 11.611 h
  R_AUC(t/∞): 57.4% and 89.1% and 96.4% and 83.2% and 89.3% and 62.4%
  VRT(0-t): 10.639 h^2 and 8.135 h^2 and 6.361 h^2 and 8.635 h^2 and 7.676 h^2 and 7.393 h^2
  VRT(0-∞): 164.942 h^2 and 21.543 h^2 and 10.309 h^2 and 38.485 h^2 and 23.734 h^2 and 121.182 h^2
  Vz/F: 1.173 L/kg and 0.799 L/kg and 0.467 L/kg and 0.969 L/kg and 0.654 L/kg and 1.139 L/kg
  t1/2z: 8.833 h and 3.008 h and 2.029 h and 4.352 h and 3.261 h and 7.402 h
  λz: 0.078 h⁻¹ and 0.23 h⁻¹ and 0.342 h⁻¹ and 0.159 h⁻¹ and 0.213 h⁻¹ and 0.094 h⁻¹
male, Sprague-Dawley, rat, plasma, oral, 10 mg/kg, rivaroxaban ng/ml mean, control (rivaroxaban alone) group, mean of rats 13-18, time 0.0833
  concentration at 5 min: 158 ng/mL
male, Sprague-Dawley, rat, plasma, oral, 10 mg/kg, rivaroxaban ng/ml mean, control (rivaroxaban alone) group, mean of rats 13-18, time 0.25
  concentration at 0.25 h: 259 ng/mL
male, Sprague-Dawley, rat, plasma, oral, 10 mg/kg, rivaroxaban ng/ml mean, control (rivaroxaban alone) group, mean of rats 13-18, time 0.5
  concentration at 0.5 h: 397 ng/mL
male, Sprague-Dawley, rat, plasma, oral, 10 mg/kg, rivaroxaban ng/ml mean, control (rivaroxaban alone) group, mean of rats 13-18, time 1
  concentration at 1 h: 435 ng/mL
male, Sprague-Dawley, rat, plasma, oral, 10 mg/kg, rivaroxaban ng/ml mean, control (rivaroxaban alone) group, mean of rats 13-18, time 2
  concentration at 2 h: 337 ng/mL
male, Sprague-Dawley, rat, plasma, oral, 10 mg/kg, rivaroxaban ng/ml mean, control (rivaroxaban alone) group, mean of rats 13-18, time 3
  concentration at 3 h: 291 ng/mL
male, Sprague-Dawley, rat, plasma, oral, 10 mg/kg, rivaroxaban ng/ml mean, control (rivaroxaban alone) group, mean of rats 13-18, time 4
  concentration at 4 h: 238 ng/mL
